Patent US9527841B2, “Substituted pyrido[2,3-b]pyrazines as phosphodiesterase 2A inhibitors” (Takeda Pharmaceutical Company Limited, priority 2012, dated 2016)

Biological target: T1, Human PDE2A3 enzyme (Homo sapiens, UniProt O00408)
T1 construct: transfected with the full-length gene; His-tag; made in house; host or cells: Sf9 insect cells
Experiment: PDE Enzyme Inhibition Assay (SPA, [3H]cGMP)
Type: biochemical
Conditions: compound 10 μM; substrate [3H]cGMP 77 nM; 60 min at room temperature; duplicate
Experimental: Human PDE2A3 enzyme was generated from Sf9 cells transfected with the full-length gene. The extracted enzyme from Sf9 cells was purified by His-tag affinity column and gel filtration. The enzyme was stored at −70° C. until use. PDE activity was measured using a SPA (Scintillation Proximity Assay) (GE Healthcare). To evaluate the inhibitory activity, 10 μl of serial diluted compounds were incubated with 20 μl of PDE enzyme in assay buffer (50 mM HEPES-NaOH, 8.3 mM MgCl2, 1.7 mM EGTA, 0.1% BSA (pH 7.4)) at room temperature for 30 min. Final concentration of DMSO in the assay was 1%. The evaluation of the compounds were performed in duplicate in 96-well half-area plates (Corning) or 384-well OptiPlate (PerkinElmer). To start the reaction, 10 μl of substrate [^3H] cGMP (77 nM, PerkinElmer) was added for a final assay volume of 40 μl. After 60 min incubation at room temperature, 20 μl of yttrium SPA beads (20 mg/ml) containing zinc sulphate was added thereto to terminate the PDE reaction. After being settled for additional 1 hr, the assay plates were counted in a scintillation counter (PerkinElmer) to allow calculation of inhibition rate. Inhibition rate was calculated on the basis of 0% control wells with enzyme and DMSO, and 100% control wells without enzyme.

T1 sequence (O00408 whole entry): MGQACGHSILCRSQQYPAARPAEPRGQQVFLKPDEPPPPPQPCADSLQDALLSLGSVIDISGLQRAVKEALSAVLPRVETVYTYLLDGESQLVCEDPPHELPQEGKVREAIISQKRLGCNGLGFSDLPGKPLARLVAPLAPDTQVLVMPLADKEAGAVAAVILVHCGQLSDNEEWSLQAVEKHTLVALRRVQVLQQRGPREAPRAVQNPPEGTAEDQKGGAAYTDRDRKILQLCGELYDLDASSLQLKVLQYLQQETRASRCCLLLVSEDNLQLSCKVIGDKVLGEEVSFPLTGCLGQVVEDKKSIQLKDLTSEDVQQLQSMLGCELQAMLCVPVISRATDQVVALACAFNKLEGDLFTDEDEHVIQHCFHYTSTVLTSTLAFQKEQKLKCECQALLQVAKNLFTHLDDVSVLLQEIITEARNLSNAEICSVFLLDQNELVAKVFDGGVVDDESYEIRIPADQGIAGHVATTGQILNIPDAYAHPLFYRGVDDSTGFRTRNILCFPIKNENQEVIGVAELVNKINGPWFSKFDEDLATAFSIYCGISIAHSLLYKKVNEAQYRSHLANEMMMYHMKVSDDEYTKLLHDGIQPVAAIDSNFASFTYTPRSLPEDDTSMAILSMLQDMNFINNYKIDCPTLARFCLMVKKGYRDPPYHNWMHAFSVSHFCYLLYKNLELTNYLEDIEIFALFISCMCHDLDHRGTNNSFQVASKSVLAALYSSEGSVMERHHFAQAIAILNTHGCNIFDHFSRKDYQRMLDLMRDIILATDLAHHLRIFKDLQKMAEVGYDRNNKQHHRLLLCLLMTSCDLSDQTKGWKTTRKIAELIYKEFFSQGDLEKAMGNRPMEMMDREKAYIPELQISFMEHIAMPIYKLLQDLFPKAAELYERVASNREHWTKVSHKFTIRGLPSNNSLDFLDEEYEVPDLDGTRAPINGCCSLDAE

Row | Compound | inhibition at 10 µM [%]
1 | COc1cnc2c(c1)NC(=O)CN2C(=O)C(Oc1ccc(-n2cccn2)c(F)c1)C(C)C (centres unmarked) [Example 135, 4-(2-(3-fluoro-4-(1H-pyrazol-1-yl)phenoxy)-3-methylbutanoyl)-7-methoxy-3,4-dihydropyrido[2,3-b]pyrazin-2(1H)-one] | 99
2 | CCC(Oc1ccc(S(=O)(=O)C(F)(F)F)cc1)C(=O)N1CC(=O)Nc2cccnc21 (centres unmarked) [Example 75, 4-(2-(4-((trifluoromethyl)sulfonyl)phenoxy)butanoyl)-3,4-dihydropyrido[2,3-b]pyrazin-2(1H)-one] | 95
3 | CCC(Oc1ccc(OC(F)(F)F)cc1)C(=O)N1CC(=O)Nc2c(C)ccnc21 (centres unmarked) [Example 29, optical active form of 8-methyl-4-(2-(4-(trifluoromethoxy)phenoxy)butanoyl)-3,4-dihydropyrido[2,3-b]pyrazin-2(1H)-one] | 99
4 | COCCC(Oc1ccc(OC(F)(F)F)cc1)C(=O)N1CC(=O)Nc2cccnc21 (centres unmarked) [Example 18, 4-(4-methoxy-2-(4-(trifluoromethoxy)phenoxy)butanoyl)-3,4-dihydropyrido[2,3-b]pyrazin-2(1H)-one] | 99
5 | CC(C)C(Oc1ccc(C(F)(F)F)cc1)C(=O)N1CC(=O)Nc2cccnc21 (centres unmarked) [Example 21, 4-(3-methyl-2-(4-(trifluoromethyl)phenoxy)butanoyl)-3,4-dihydropyrido[2,3-b]pyrazin-2(1H)-one] | 98
6 | CCC(Oc1ccc(OC(F)(F)F)cc1)C(=O)N1CC(=O)Nc2cccnc21 (centres unmarked) [Example 3, optical active form of 4-(2-(4-(trifluoromethoxy)phenoxy)butanoyl)-3,4-dihydropyrido[2,3-b]pyrazin-2 (1H)-one] | 100
7 | CCC(Oc1ccc(OC(F)(F)F)cc1)C(=O)N1CC(=O)Nc2cc(C)cnc21 (centres unmarked) [Example 6, 7-methyl-4-(2-(4-(trifluoromethoxy)phenoxy)butanoyl)-3,4-dihydropyrido[2,3-b]pyrazin-2(1H)-one] | 100
8 | CCC(Oc1ccc(C(C)C)cc1)C(=O)N1CC(=O)Nc2cccnc21 (centres unmarked) [Example 47, 4-(2-(4-isopropylphenoxy)butanoyl)-3,4-dihydropyrido[2,3-b]pyrazin-2(1H)-one] | 98
9 | CCC(Oc1ccc(OC(F)(F)F)cc1)C(=O)N1CC(=O)Nc2ccc(-c3ccn(C)n3)nc21 (centres unmarked) [Example 132, optical active form of 6-(1-methyl-1H-pyrazol-3-yl)-4-(2-(4-(trifluoromethoxy)phenoxy)butanoyl)-3,4-dihydropyrido[2,3-b]pyrazin-2(1H)-one] | 100
10 | CCC(Oc1ccc(-n2cccn2)cc1)C(=O)N1CC(=O)Nc2cccnc21 (centres unmarked) [Example 55, 4-(2-(4-(1H-pyrazol-1-yl)phenoxy)butanoyl)-3,4-dihydropyrido[2,3-b]pyrazin-2(1H)-one] | 99
11 | CCC(Oc1ccc(OC(F)(F)F)cc1)C(=O)N1CC(=O)Nc2ccc(C)nc21 (centres unmarked) [Example 28, optical active form of 6-methyl-4-(2-(4-(trifluoromethoxy)phenoxy)butanoyl)-3,4-dihydropyrido[2,3-b]pyrazin-2(1H)-one] | 99
12 | CCC(Nc1ccc(OC(F)(F)F)cc1)C(=O)N1CC(=O)Nc2cccnc21 (centres unmarked) [Example 23, 4-(2-((4-(trifluoromethoxy)phenyl)amino)butanoyl)-3,4-dihydropyrido[2,3-b]pyrazin-2(1H)-one] | 97
13 | CCC(Oc1ccc(C(F)(F)F)cc1)C(=O)N1CC(=O)Nc2cccnc21 (centres unmarked) [Example 4, 4-(2-(4-(trifluoromethyl)phenoxy)butanoyl)-3,4-dihydropyrido[2,3-b]pyrazin-2(1H)-one] | 98
14 | O=C1CN(C(=O)[C@@H]2CCCN2c2ccc(OC(F)(F)F)cc2)c2ncccc2N1 [Example 25, 4-(1-(4-(trifluoromethoxy)phenyl)prolyl)-3,4-dihydropyrido[2,3-b]pyrazin-2(1H)-one] | 96
